Values of other authors, collected in patent US20240034722A1, “PRETARGETING IMAGING AGENTS” (Eli Lilly and Company, priority 2020, published 2024).

Experiments:
[1] = wild type mice, dynamic PET, by 10 min post-injection; cited from earlier work
ASO-TCO conjugate = settings: rats given ASO-TCO intrathecally, tracer i.v. 24 and 168 hours later, static PET-CT 75-90 minutes after tracer; cited from earlier work

O=C(Cc1ccc(-c2nncnn2)cc1)NCC[18F] [[^18F]537-Tz, 2-(4-(1,2,4,5-tetrazin-3-yl)phenyl)-N-(2-fluoroethyl)acetamide]
Brain uptake [1]: 1.7±0.9 % ID | Radiotracer uptake in brain and spine relative to the control group (ASO-TCO conjugate): Higher radiotracer uptake
